According to patent publication US12528818B2, “Compositions and methods for inhibition of RAS” (Leidos Biomedical Research, Inc., priority 2021, dated 2026):

The molecules below were run on pERK in NCI-H358 cells (assay: Cell-based pERK HTRF assay (pERK inhibition in H358 cells)). Conditions: Homo sapiens, NCI-H358, 0.5 h, pERK inhibition IC50, NCI-H358 cells, 30 min incubation; read-out: PERK in H358 cell.

| Structure (SMILES) | IC50 [µM] |
| --- | --- |
| C=CC(=O)N1CCC(N(CC)c2nc(OC[C@@H]3CC4(CC4)CN3C)nc3c(F)c(-c4ccc(F)c5sc(N)c(C#N)c45)c(C(F)(F)F)cc23)[C@H]1C (some centres unmarked) [Compound 405] | < 0.1 |
| C=CC(=O)N1CC[C@@H](N(C)c2nc(OC[C@@]34CCCN3C[C@H](F)C4)nc3c(F)c(-c4ccc(F)c5sc(N)nc45)c(C#N)cc23)[C@H]1C [Compound 373] | 0.1 to 1 |
| C=CC(=O)N1CC(Nc2ncnc3c(F)c(-c4ccc(F)c5sc(N)nc45)cc(OC)c23)C1 [Compound 69, 1-(3-((7-(2-amino-7-fluorobenzo[d]thiazol-4-yl)-8-fluoro-5-methoxyquinazolin-4-yl)amino)azetidin-1-yl)prop-2-en-1-one] | > 1 |
| C=CC(=O)N1CC(N(c2nc(OCC34CCCN3CCC4)nc3c(F)c(-c4ccc(F)c5sc(N)nc45)c(Cl)cc23)C2CC2)C1 [Compound 151] | > 1 |
| C=CC(=O)N1CCN(c2nc(OCC34CCCN3CCC4)nc3c(F)c(-c4ccc(F)c5sc(N)nc45)c(C(F)F)cc23)CC1 [Compound 246] | 0.1 to 1 |
| C=CC(=O)N1C[C@@H](F)[C@@H](N(C)c2nc(OC[C@@]34CCCN3C[C@H](F)C4)nc3c(F)c(-c4ccc(F)c5sc(N)nc45)ccc23)C1 [Compound 353] | < 0.1 |
| C=CC(=O)N1CCN(c2nc(OCC34CCCN3CCC4)nc3c(F)c(-c4ccc(F)c5sc(N)nc45)c(C(C)(F)F)cc23)CC1 [Compound 284] | > 1 |
| C=CC(=O)N1CCC(N(C)c2nc(OC[C@@H]3C[C@@H](F)CN3C)nc3c(F)c(-c4ccc(F)c5sc(N)c(C#N)c45)c(Cl)cc23)[C@H]1C (some centres unmarked) [Compound 449] | 0.1 to 1 |
| C=CC(=O)N1C[C@H](C)N(c2nc(OC[C@@]34CCCN3C[C@H](F)C4)nc3c(F)c(-c4ccc(F)c5sc(N)nc45)c(C(F)F)cc23)C[C@H]1C [Compound 291] | < 0.1 |
| CN1CCC[C@H]1COc1nc(NC2CCN(C#N)CC2)c2cc(Cl)c(-c3ccc(F)c4sc(N)nc34)c(F)c2n1 [Compound 55] | > 1 |
| C=CC(=O)N1CCN(c2c(C#N)c(OC[C@@]34CCCN3C[C@H](F)C4)nc3c(F)c(-c4ccc(F)c5sc(N)nc45)c(Cl)cc23)CC1 [Compound 200] | < 0.1 |
| C=CC(=O)N1C[C@H](C)N(c2nc(OC[C@@]34CCCN3C[C@H](F)C4)nc3c(F)c(-c4ccc(F)c5sc(N)c(C#N)c45)c(F)cc23)C[C@H]1C [Compound 333] | < 0.1 |
| C=CC(=O)N1C[C@H](C)N(c2nc(OC[C@@H]3CC4(CC4)CN3C)nc3c(F)c(-c4ccc(F)c5sc(N)c(C#N)c45)c(C(F)(F)F)cc23)C[C@H]1C [Compound 410, 4-(4-((2S,5R)-4-acryloyl-2,5-dimethylpiperazin-1-yl)-8-fluoro-2-(((S)-5-methyl-5-azaspiro[2.4]heptan-6-yl)methoxy)-6-(trifluoromethyl)quinazolin-7-yl)-2-amino-7-fluorobenzo[b]thiophene-3-carbonitrile] | < 0.1 |
| CC#CC(=O)N1CC[C@@H]2[C@H]1CN2c1nc(OCC23CCCN2CCC3)nc2c(F)c(-c3ccc(F)c4sc(N)nc34)c(-c3ccoc3)cc12 [Compound 120] | > 1 |
| C=CC(=O)N1CCN(c2nc(OCC34CCCN3CCC4)nc3c(F)c(-c4ccc(F)c5sc(N)nc45)c(-c4ccoc4)cc23)CC1 [Compound 119] | > 1 |
| C=CC(=O)N1C[C@@H](F)[C@@H](N(C)c2nc(OC[C@@]34CCCN3C[C@H](F)C4)nc3c(C#N)c(-c4ccc(F)c5sc(N)c(C#N)c45)c(Cl)cc23)C1 [Compound 379] | < 0.1 |
| C=CC(=O)N1CC[C@@H](N(C)c2nc(OC[C@@]34CCCN3C[C@H](F)C4)nc3c(F)c(-c4ccc(F)c5sc(N)c(C#N)c45)ccc23)C1 [Compound 311] | < 0.1 |
| C=CC(=O)N1CC(N(C)c2nc(OCC34CCCN3CC(F)(F)C4)nc3c(F)c(-c4ccc(F)c5sc(N)nc45)c(C(F)(F)F)cc23)C1 (centres unmarked) [Compound 187] | 0.1 to 1 |
| C=CC(=O)N1CCC(N(CC)c2nc(OC[C@@]34CCCN3C[C@H](F)C4)nc3c(F)c(-c4ccc(F)c5sc(N)c(C#N)c45)ccc23)[C@H]1COC (some centres unmarked) [Compound 412] | 0.1 to 1 |
| C=CC(=O)N1C[C@H](C)N(c2nc(N3CC(N4CC5(CC5)C4)C3)nc3c(F)c(-c4ccc(F)c5sc(N)c(C#N)c45)c(C(F)(F)F)cc23)C[C@H]1C [Compound 338, 4-(2-(3-(5-azaspiro[2.3]hexan-5-yl)azetidin-1-yl)-4-((2S,5R)-4-acryloyl-2,5-dimethylpiperazin-1-yl)-8-fluoro-6-(trifluoromethyl)quinazolin-7-yl)-2-amino-7-fluorobenzo[b]thiophene-3-carbonitrile] | < 0.1 |
| C=CC(=O)N1CCN(c2nc(OCC34CCCN3C[C@H](OC)C4)nc3c(F)c(-c4ccc(F)c5sc(N)nc45)c(C(F)(F)F)cc23)CC1 (some centres unmarked) [Compound 209] | < 0.1 |
| CC#CC(=O)N1CCN(c2nc(OC[C@]34CCCN3C[C@H](F)C4)nc3c(F)c(-c4ccc(F)c5sc(N)nc45)c(C(F)(F)F)cc23)CC1 [Compound 149] | < 0.1 |
| C=CC(=O)N1CCN(c2nc(OCC34CCCN3CCC4)nc3c(F)c(-c4ccc(F)c5oc(N)nc45)c(C(F)(F)F)cc23)CC1 [Compound 162, 1-(4-(7-(2-amino-7-fluorobenzo[d]oxazol-4-yl)-8-fluoro-2-((tetrahydro-1H-pyrrolizin-7a(5H)-yl)methoxy)-6-(trifluoromethyl)quinazolin-4-yl)piperazin-1-yl)prop-2-en-1-one] | 0.1 to 1 |
| C=CC(=O)N1CC[C@@H](N(C)c2nc(OC[C@@H]3C[C@@H](F)CN3C3CC3)nc3c(F)c(-c4ccc(F)c5sc(N)nc45)c(C(F)(F)F)cc23)C1 [Compound 273] | 0.1 to 1 |

Same assay, conditions: pERK inhibition IC50, NCI-H358 cells, 30 min incubation; read-out: PERK in H358 cell

| Structure (SMILES) | IC50 [µM] |
| --- | --- |
| C=CC(=O)N1CC[C@@H](N(C)c2nc(OCC34CCCN3CCC4)nc3c(F)c(-c4ccc(F)c5sc(N)nc45)c(C(F)(F)F)cc23)C1 (atropisomer, axis not shown) [Compound 222] | 0.1 to 1 |
| C=CC(=O)N1CC[C@@H](N(C)c2nc(OC[C@@H]3CC(F)(F)CN3C)nc3c(F)c(-c4ccc(F)c5sc(N)nc45)c(C(F)(F)F)cc23)C1 (atropisomer, axis not shown) [Compound 228] | < 0.1 |
